Assay results reported in patent US11053204B2, “Pyrimidinyloxy benzene derivatives as herbicides” (FMC Corporation, priority 2015, dated 2021).

Tests used:
Format in all cases: in vivo
[1] = system: Italian ryegrass (Lolium multiflorum); test: Test A preemergence, visual injury rating; details: Lolium multiflorum, pre-emergence, 240 h, 0 to 100 scale (0 no effect, 100 complete control), read-out: Ryegrass, Italian plant response rating
How it was run: (§1)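 Visual 0–100 rating (100 = complete control) taken about 10 d post-treatment relative to untreated checks. Preemergence: directed soil spray on sown loam/sand pots. Postemergence: seedlings 2–10 cm, 1–2 leaf. Non-phytotoxic solvent formulation with surfactant.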

[2] = system: giant foxtail (Setaria faberii); test: Test A preemergence, visual injury rating; details: Setaria faberi, pre-emergence, 240 h, 0 to 100 scale (0 no effect, 100 complete control), read-out: Foxtail, Giant plant response rating
How it was run: as §1

[3] = system: pigweed (Amaranthus retroflexus); test: Test A preemergence, visual injury rating; details: Amaranthus retroflexus, pre-emergence, 240 h, 0 to 100 scale (0 no effect, 100 complete control), read-out: Pigweed plant response rating
How it was run: as §1

[4] = system: barnyardgrass (Echinochloa crus-galli); test: Test A preemergence, visual injury rating; details: Echinochloa crus-galli, pre-emergence, 240 h, 0 to 100 scale (0 no effect, 100 complete control), read-out: Barnyardgrass plant response rating
How it was run: as §1

kochia (Kochia scoparia) [5] = test: Test A preemergence, visual injury rating; details: Bassia scoparia, pre-emergence, 240 h, 0 to 100 scale (0 no effect, 100 complete control), read-out: Kochia plant response rating
How it was run: as §1

[6] = system: ragweed (common ragweed, Ambrosia elatior); test: Test A preemergence, visual injury rating; details: Ambrosia artemisiifolia, pre-emergence, 240 h, 0 to 100 scale (0 no effect, 100 complete control), read-out: Ragweed plant response rating
How it was run: as §1

[7] = system: chickweed (common chickweed, Stellaria media); test: Test C postemergence, plant response rating; details: Stellaria media, post-emergence
How it was run: (§2)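 Visual injury score, 0 = no effect, 100 = complete control, assigned against untreated controls after 13 to 15 d in the greenhouse. Compounds were applied in a surfactant-containing non-phytotoxic solvent mix, preemergence to seeded loam/sand or silt loam soil, or postemergence to 1- to 4-leaf plants (2 to 18 cm).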

[8] = system: galium (catchweed bedstraw, Galium aparine); test: Test C postemergence, plant response rating; details: Galium, post-emergence
How it was run: as §2

[9] = system: nutsedge, yellow (yellow nutsedge, Cyperus esculentus); test: Test C postemergence, plant response rating; details: Cyperus, post-emergence
How it was run: as §2

[10] = system: ryegrass, Italian (Italian ryegrass, Lolium multiflorum); test: Test C postemergence, plant response rating; details: Lolium multiflorum, post-emergence
How it was run: as §2

soybean (Glycine max) = test: Test C postemergence, plant response rating; details: Glycine max, post-emergence
How it was run: as §2

[11] = system: waterhemp (common waterhemp, Amaranthus rudis); test: Test C postemergence, plant response rating; details: for Plant response rating, Waterhemp: scale 0 to 100; for Waterhemp plant response rating: scale 0 to 100 (0 no effect, 100 complete control)
How it was run: as §2

corn (Zea mays) = test: Test C postemergence, plant response rating; details: Zea mays, post-emergence
How it was run: as §2

[12] = system: oat, wild (wild oat Avena fatua); test: Test C postemergence, plant response rating; details: Avena fatua, post-emergence
How it was run: as §2

kochia (Kochia scoparia) [13] = test: Test C postemergence, plant response rating; details: Bassia scoparia, post-emergence
How it was run: as §2

[14] = system: crabgrass, large (large crabgrass, Digitaria sanguinalis); test: Test C postemergence, plant response rating; details: Digitaria sanguinalis, post-emergence
How it was run: as §2

[15] = system: lambsquarters (Chenopodium album); test: Test C postemergence, plant response rating; details: Chenopodium album, post-emergence
How it was run: as §2

[16] = system: ragweed (common ragweed, Ambrosia elatior); test: Test C postemergence, plant response rating; details: Ambrosia artemisiifolia, post-emergence
How it was run: as §2

[17] = 62 g ai/ha, scale 0 to 100 (0 no effect, 100 complete control)
[18] = 125 g ai/ha, scale 0 to 100 (0 no effect, 100 complete control)

Compound: N#Cc1cccc(Oc2ncc(Cl)cn2)c1CCCCC(F)(F)F [Compound 73, 3-[(5-chloro-2-pyrimidinyl)oxy]-2-(5,5,5-trifluoropentyl)benzonitrile]
- pest or weed control at 125 g/ha ([1]; 125 g ai/ha): 50%
- pest or weed control at 500 g/ha ([1]; 500 g ai/ha): 90%
- pest or weed control at 125 g/ha ([2]; 125 g ai/ha): 100%
- pest or weed control at 500 g/ha ([2]; 500 g ai/ha): 100%
- pest or weed control at 125 g/ha ([3]; 125 g ai/ha): 100%
- pest or weed control at 500 g/ha ([3]; 500 g ai/ha): 100%
- pest or weed control at 125 g/ha ([4]; 125 g ai/ha): 100%
- pest or weed control at 500 g/ha ([4]; 500 g ai/ha): 100%
- pest or weed control at 125 g/ha (kochia (Kochia scoparia) [5]; 125 g ai/ha): 100%
- pest or weed control at 500 g/ha (kochia (Kochia scoparia) [5]; 500 g ai/ha): 100%
- pest or weed control at 125 g/ha ([6]; 125 g ai/ha): 10%
- pest or weed control at 500 g/ha ([6]; 500 g ai/ha): 50%
- pest or weed control at 16 g/ha ([7]; 16 g ai/ha, scale 0 to 100): 80%
- pest or weed control at 31 g/ha ([7]; 31 g ai/ha, scale 0 to 100): 80%
- pest or weed control at 62 g/ha [7, 17]: 90%
- pest or weed control at 125 g/ha [7, 18]: 85%
- pest or weed control at 16 g/ha ([8]; 16 g ai/ha, scale 0 to 100): 70%
- pest or weed control at 31 g/ha ([8]; 31 g ai/ha, scale 0 to 100): 70%
- pest or weed control at 62 g/ha [8, 17]: 75%
- pest or weed control at 125 g/ha [8, 18]: 98%
- pest or weed control at 16 g/ha ([9]; 16 g ai/ha, scale 0 to 100): 5%
- pest or weed control at 31 g/ha ([9]; 31 g ai/ha, scale 0 to 100): 15%
- pest or weed control at 62 g/ha [9, 17]: 20%
- pest or weed control at 125 g/ha [9, 18]: 30%
- pest or weed control at 16 g/ha ([10]; 16 g ai/ha, scale 0 to 100): 5%
- pest or weed control at 31 g/ha ([10]; 31 g ai/ha, scale 0 to 100): 5%
- pest or weed control at 62 g/ha [10, 17]: 10%
- pest or weed control at 125 g/ha [10, 18]: 20%
- plant injury at 16 g/ha (soybean (Glycine max); 16 g ai/ha, scale 0 to 100): 45%
- plant injury at 31 g/ha (soybean (Glycine max); 31 g ai/ha, scale 0 to 100): 70%
- plant injury at 62 g/ha (soybean (Glycine max); [17]): 75%
- plant injury at 125 g/ha (soybean (Glycine max); [18]): 60%
- Plant response rating, Waterhemp ([11]; 16 g ai/ha): 85
- Plant response rating, Waterhemp ([11]; 31 g ai/ha): 98
- Waterhemp plant response rating ([11]; 62 g ai/ha): 100
- Waterhemp plant response rating ([11]; 125 g ai/ha): 100
- Corn plant response rating (crop injury, 0 = no effect, 100 = complete kill) at 16 g/ha (corn (Zea mays); 16 g ai/ha, scale 0 to 100): 10%
- Corn plant response rating (crop injury, 0 = no effect, 100 = complete kill) at 31 g/ha (corn (Zea mays); 31 g ai/ha, scale 0 to 100): 20%
- plant injury at 62 g/ha (corn (Zea mays); [17]): 15%
- plant injury at 125 g/ha (corn (Zea mays); [18]): 15%
- pest or weed control at 16 g/ha ([12]; 16 g ai/ha, scale 0 to 100): 5%
- pest or weed control at 31 g/ha ([12]; 31 g ai/ha, scale 0 to 100): 5%
- pest or weed control at 62 g/ha [12, 17]: 5%
- pest or weed control at 125 g/ha [12, 18]: 10%
- pest or weed control at 16 g/ha (kochia (Kochia scoparia) [13]; 16 g ai/ha, scale 0 to 100): 98%
- pest or weed control at 31 g/ha (kochia (Kochia scoparia) [13]; 31 g ai/ha, scale 0 to 100): 100%
- pest or weed control at 62 g/ha (kochia (Kochia scoparia) [13]; [17]): 100%
- pest or weed control at 125 g/ha (kochia (Kochia scoparia) [13]; [18]): 100%
- pest or weed control at 16 g/ha ([14]; 16 g ai/ha, scale 0 to 100): 15%
- pest or weed control at 31 g/ha ([14]; 31 g ai/ha, scale 0 to 100): 10%
- pest or weed control at 62 g/ha [14, 17]: 25%
- pest or weed control at 125 g/ha [14, 18]: 60%
- pest or weed control at 16 g/ha ([15]; 16 g ai/ha, scale 0 to 100): 75%
- pest or weed control at 31 g/ha ([15]; 31 g ai/ha, scale 0 to 100): 80%
- pest or weed control at 62 g/ha [15, 17]: 90%
- pest or weed control at 125 g/ha [15, 18]: 98%
- pest or weed control at 16 g/ha ([16]; 16 g ai/ha, scale 0 to 100): 50%
- pest or weed control at 31 g/ha ([16]; 31 g ai/ha, scale 0 to 100): 55%
- pest or weed control at 62 g/ha [16, 17]: 60%
- pest or weed control at 125 g/ha [16, 18]: 65%
